Experiment: Cytotoxicity against SW1116 cells by MTT colometric method
Format: functional, cell-based
Conditions: Homo sapiens, SW 1116

Work on O=c1[nH]cc(F)c(=O)[nH]1 [FLUOROURACIL] yielded an IC50 of 37 µM.
O=C1C[C@H]2[C@@H]3CCC(=O)c4c(O)ccc(c43)[C@]2(O)c2cccc(O)c21 [DALDINONE C] showed an IC50 of 49.5 µM.
In the case of CO[C@H]1C[C@H]2[C@@H]3CCC(=O)c4c(O)ccc(c43)[C@]2(O)c2cccc(O)c21 [DALDINONE D], the IC50 is reported as 41 µM.

— ChEMBL document CHEMBL1139218, “Cytotoxic benzo[j]fluoranthene metabolites from Hypoxylon truncatum IFB-18, an endophyte of Artemisia annua” (J Nat Prod, 2007)
